The values that follow come from patent US7537765B2, “Inhibition of HIV-1 replication by disruption of the processing of the viral capsid-spacer peptide 1 protein” (priority 2003, dated 2009).

Where two headings read alike, the source gives them in different places.

Common to all, as to type: cell-based
The subject of assay [1] is HIV-2ROD. As to the kind of experiment: Gag processing (western blot) in chronically infected H9/HIV-2ROD cells. The procedure: (§1) FIG. 2. […] Gag proteins were visualized using HIV-Ig (HIV-1) or monkey anti-SIVmac251 serum (HIV-2 and SIV; NIH AIDS Research and Reference Reagent Program).
(§2) In order to better define DSB's mechanism of action, a detailed examination was undertaken of the virus produced from HIV-1-infected cell lines treated with DSB. Briefly, H9 cells chronically infected with the HIV-1IIIB isolate were treated with DSB at 1 μg/mL for a period of 48 hrs. Indinavir was used as a control. At the 48 hr time-point, spent media was removed and fresh media containing compound was added. At 24, 48 and 72 hrs post fresh compound addition, both cells and supernatant were recovered for analysis. The level of virus in the culture supernatant was determined and western blots were used to characterize viral protein production in both cell-associated and cell-free virus. […] This defect took the form of an additional band in the western blots corresponding to p25 (FIG. 2). This p25 band results from the incomplete processing of the capsid CA-SP1 precursor. […] As discussed above, mutations at the p25 to p24 cleavage site that prevent processing are associated with defects in viral maturation and infectivity (Wiegers K. et al., J. Virol. 72:2846-54 (1998)).
In general terms: A western blot detects proteins with antibodies after separation by electrophoresis.

Assay [2] concerns HIV-1 NL4-3 SP1 point deletion mutants. As to the kind of experiment: CA-SP1 processing of NL4-3 SP1 point deletion mutants in transfected HeLa cells (Western blot). The procedure: To characterize the effect of deletion or substitution on viral particle production and Gag polyprotein processing, wild-type HIV-1 NL4-3 or SIVmac239 and respective mutant proviral DNAs were transfected into HeLa cells by employing FuGENE 6 transfection reagent (Roche). Briefly, cells were seeded into a 6-well plate (Corning) at a concentration of 0.5×10^5 per well the day before transfection to reach 60 to 80% confluence on the day of transfection. For each transfection, 3 μl of FuGENE 6 was diluted into 100 μl of serum-free DMEM followed by the addition of 1 μg of DNA. After gently mixing, the mixture of DNA-lipid complexes was gently added drop wise into the cells containing 2 ml of complete DMEM medium. Twenty-four hours post-transfection, medium containing DNA-FuGENE 6 complexes was removed, 2 ml of fresh DMEM was added into the transfected cells. […] The level of viral particle production for wild type NL4-3 and point deletion mutants was determined by p24 antigen capture ELISA (ZeptoMetrix, Buffalo, N.Y.). […]
Sensitivity to DSB was determined in experiments that characterized the effect of DSB on a late step in Gag processing, CA-SP1 cleavage.
Specifically, these assays measured the ability of DSB to disrupt CA-SP1 processing.

Assay [3] deals with HIV-1IIIB. The experiment in a line: Virus production and Gag processing (western blot) in chronically infected H9/HIV-1IIIB cells. The procedure:
as §1, §2

In assay [4] the test system is drug resistant HIV-1 isolates. The experiment in a line: Drug resistant HIV-1 isolates in fresh PBMC, p24 endpoint. The conditions noted are these: read-out: IC50. The procedure:
A robust virus inhibition assay was used to evaluate the anti-viral activity of DSB against primary HIV-1 isolates propagated in PMBC. Briefly, serial dilutions of DSB were made in medium into 96-well tissue culture plates. 25-250 TCID50 of virus and 5×10^5 PHA-stimulated PBMCs were added to each well. On days 1, 3 and 5 post-infection, media was removed from each well and replaced with fresh media containing DSB at the appropriate concentration.
(§3) The activity of DSB was tested against a panel of HIV-1 isolates resistant to approved drugs. These viruses were obtained from the NIH AIDS Research and Reference Reagent Program. Assays were performed using virus propagated in PBMCs with a p24 endpoint (above), or using cell line targets (MT-2 cells) and a cell killing endpoint. The MT-2 assay format was as follows. Serial dilutions of DSB, or each approved drug, were prepared in 96 well plates. To each sample well was added media containing MT-2 cells at 3×10^5 cells/mL and virus inoculum at a concentration necessary to result in 80% killing of the cell targets at 5 days post-infection (PI). On day 5 post-infection, virus-induced cell killing was determined by the XTT method and the inhibitory activity of the compound was determined.

The subject of assay [5] is NNRTI-resistant HIV-1 isolates. The experiment in a line: NNRTI-resistant HIV-1 isolates in MT-2 cells, cell viability (XTT) endpoint. The following applies: X4, MT-2 cells, read-out: IC50. The procedure: as §3
For orientation: Formazan colour is commonly taken as a measure of viable cells.

Assay [6] has as its system HIV-1 infected MAGI cells. The conditions noted are these: HIV-1 infected MAGI cells. From the text: To distinguish the inhibitory activity of DSB against early and late replication targets, a multinuclear activation of a galactosidase indicator (MAGI) assay was used. In this assay, the targets are HeLa cells stably expressing CD4, CXCR4, CCR5 and a reporter construct consisting of the—galactosidase gene (modified to localize to the nucleus) driven by a truncated HIV-1 LTR. Infection of these cells results in expression of Tat that drives activation of the β-galactosidase reporter gene. Expression of β-galactosidase in infected cells is detected using the chromogenic substrate X-gal.

Broadly, the IC50 is the concentration that gives 50% inhibition.

Turning to `C=C(C)[C@@H]1CC[C@]2(C(=O)O)CC[C@]3(C)[C@H](CC[C@@H]4[C@@]5(C)CC[C@H](OC(=O)CC(C)(C)C(=O)O)C(C)(C)[C@@H]5CC[C@]43C)[C@@H]12` [DSB, 3-O-(3′,3′-dimethylsuccinyl)betulinic acid], the antiviral activity result in assay [1] (HIV-2) is “lack of antiviral activity”. Moreover, in assay [1] (HIV-2 chronically infected cell line, 1 μg/mL), the Gag processing entry is listed as “normal Gag processing”. The “effect on CA-SP1 processing” value in assay [2] (point deletions starting with residue T372 and extending away from the cleavage site, 1 μg/ml) was “fully sensitive to DSB-induced disruption of CA-SP1 processing”; in assay [2] (single residue deletion at any of positions E365 through V370, 1 μg/ml), “significantly reduces the affect of DSB on CA-SP1 processing”. Moreover, in assay [3] (1 μg/mL, cell-associated and cell-free virus), the “Gag processing (p25 band in western blot)” value was “defect in Gag processing”. Besides, the “amount of virus produced” value in assay [3] (1 μg/mL, chronically infected H9 cells) is “did not cause a significant reduction in the amount of virus produced”. In addition, the “effect on virus release” value in assay [3] (a variety of experimental systems) was “does not have a significant effect on virus release”. The 50% inhibitory concentration (IC50) in assay [4] (isolate 1, NRTI-resistant, K70R T215Y/F, R5/X4) was determined as 4.4 nM; in assay [4] (isolate 2, NRTI-resistant, K70R T215Y/F, R5/X4), 4.2 nM; in assay [4] (isolate 5, Protease-resistant, V82A, X4), 5.6 nM; in assay [4] (isolate 6, Protease-resistant, I84V, X4), 5.5 nM; in assay [4] (isolate 7, Protease-resistant, L10R/M46I/L63P/V82T/I84V, X4), 12.9 nM; in assay [5] (isolate 3, NNRTI-resistant, Y181C) it was 1 nM. For the same compound, in assay [5] (isolate 4, NNRTI-resistant, K103N Y181C), the IC50 is 1.3 nM. In addition, the “% Decrease (β-galactosidase expression)” value in assay [6] was 12%.
